ChEMBL document CHEMBL3779880, “In silico to in vitro screening of hydroxypyridinones as acetylcholinesterase inhibitors” (Bioorg Med Chem Lett, 2016)
pIC50: −log10 of the molar value. Active and inactive are the calls of the source. The rule behind the calls is not given here.

How the values were obtained:
[1] = target: Acetylcholinesterase (Electrophorus electricus) (UniProt O42275); assay: Reversible inhibition of electric eel AChE incubated for 1 and 24 hrs by ESI-MS and TLC method
[2] = target: Acetylcholinesterase (Electrophorus electricus) (UniProt O42275); assay: Reversible inhibition of electric eel AChE at 554 mM after 5 to 60 mins followed by addition of acetylthiocholine iodide by Ellman's method
Acetylcholinesterase = Acetylcholinesterase (Electrophorus electricus, UniProt O42275)
Sequence of Acetylcholinesterase (O42275 whole entry): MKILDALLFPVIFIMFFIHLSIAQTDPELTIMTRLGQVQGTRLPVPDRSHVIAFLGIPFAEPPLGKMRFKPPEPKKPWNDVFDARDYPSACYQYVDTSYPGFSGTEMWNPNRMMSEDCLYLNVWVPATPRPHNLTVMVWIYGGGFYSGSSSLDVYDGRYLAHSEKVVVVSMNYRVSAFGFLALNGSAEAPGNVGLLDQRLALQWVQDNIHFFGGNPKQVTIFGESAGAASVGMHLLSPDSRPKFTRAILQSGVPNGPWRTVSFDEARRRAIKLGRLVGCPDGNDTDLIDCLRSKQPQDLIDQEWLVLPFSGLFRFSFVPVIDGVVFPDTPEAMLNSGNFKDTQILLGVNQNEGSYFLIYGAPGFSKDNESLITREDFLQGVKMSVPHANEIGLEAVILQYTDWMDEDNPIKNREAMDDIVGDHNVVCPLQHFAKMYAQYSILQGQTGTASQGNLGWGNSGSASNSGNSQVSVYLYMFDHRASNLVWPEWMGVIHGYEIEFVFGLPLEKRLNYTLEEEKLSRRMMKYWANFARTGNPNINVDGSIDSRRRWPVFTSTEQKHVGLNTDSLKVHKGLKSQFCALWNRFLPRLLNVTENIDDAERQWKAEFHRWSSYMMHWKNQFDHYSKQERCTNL
Description: Inhibition of electric eel AChE using acetylthiocholine iodide as substrate by Ellman's method

[3] = target: Acetylcholinesterase (Electrophorus electricus) (UniProt O42275); assay: Reversible inhibition of electric eel AChE at 92 mM after 5 to 60 mins followed by addition of acetylthiocholine iodide by Ellman's method
[4] = Metal chelating activity assessed as Fe3+/compound complex formation incubated with electric eel AChE for 1 and 24 hrs measured over 60 mins by TLC analysis; type: physicochemical

Sequence of Acetylcholinesterase (Electrophorus electricus) (O42275 24-633 limits assumed): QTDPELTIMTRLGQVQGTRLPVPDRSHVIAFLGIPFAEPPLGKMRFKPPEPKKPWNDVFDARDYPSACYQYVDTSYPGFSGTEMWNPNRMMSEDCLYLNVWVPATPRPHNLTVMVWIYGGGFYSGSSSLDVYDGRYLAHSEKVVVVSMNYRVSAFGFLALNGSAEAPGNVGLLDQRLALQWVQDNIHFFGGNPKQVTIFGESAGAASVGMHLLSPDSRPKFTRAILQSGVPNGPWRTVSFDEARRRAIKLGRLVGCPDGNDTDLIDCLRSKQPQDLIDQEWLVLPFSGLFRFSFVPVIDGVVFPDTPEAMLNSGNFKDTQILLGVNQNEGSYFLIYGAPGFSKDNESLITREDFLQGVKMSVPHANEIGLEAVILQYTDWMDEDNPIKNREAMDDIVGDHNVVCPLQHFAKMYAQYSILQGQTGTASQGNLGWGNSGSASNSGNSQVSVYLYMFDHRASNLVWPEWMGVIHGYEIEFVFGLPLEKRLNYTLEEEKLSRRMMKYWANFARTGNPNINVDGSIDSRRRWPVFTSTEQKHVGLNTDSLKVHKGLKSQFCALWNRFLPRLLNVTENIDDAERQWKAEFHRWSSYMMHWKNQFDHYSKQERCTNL

SMILES	inhibition [1]	inhibition [2]	pIC50 (Acetylcholinesterase)	inhibition [3]	Activity [4]
Cc1c(OCc2ccc(OC(=O)N(C)C)cc2)c(=O)ccn1-c1ccccc1	Active	Active	3.66	–	–
Cc1c(O)c(=O)ccn1-c1ccc(OC(=O)N(C)C)cc1	Active	–	3.46	Active	Active
Cc1ccc(OC(=O)N(C)C)cc1 [P-TOLYL DIMETHYLCARBAMATE]	–	–	2.89	–	–
